# Assay results published in patent US10836732B2, “Compounds for combating arthropods” (priority 2013, dated 2020).
# Test system: Musca domestica
# Assay: Musca domestica test (MUSCDO)
# Format: in vivo
# Conditions: 20 ppm, adult houseflies, after 2 days
# Method: Solvent: dimethyl sulphoxide
# To produce an appropriate active ingredient formulation, 10 mg of active ingredient are mixed with 0.5 ml of dimethyl sulphoxide, and the concentrate is diluted with water to the desired concentration.
# Vessels containing a sponge treated with sugar solution and the active ingredient formulation of the desired concentration are populated with 10 adult houseflies (Musca domestica).
# After 2 days, the kill in % is determined 100% means that all of the flies have been killed or knocked down; 0% means that none of the flies have been killed or knocked down.
smiles,measurement,value
"Cc1cc(C(F)(C(F)(F)F)C(F)(F)F)cc(C)c1-c1cn(-c2ccc(Cl)c(C(=O)NC3CC3)c2)nn1 [I-T48-1, 2-chloro-N-cyclopropyl-5-[4-[2,6-dimethyl-4-[1,2,2,2-tetrafluoro-1-(trifluoromethyl)ethyl]phenyl]triazol-1-yl]benzamide]",efficacy (killed or knocked down),100%
